Test results taken from PMC12348470, “Amino Acid Substitutions in Bacteriocin Lactolisterin BU Reveal Functional Domains Involved in Biological Activity Against Staphylococcus aureus” (Molecules, 2025).
“And” between values parts separate entries of the source, which are not always exact repeats. Equal values may be shown once. Read-outs that look alike come from different tables or passages of the source. Ends that are not written are not given here.

Experiments:
[1] = test system: S. aureus ATCC 25923; assay: Spot-on-the-lawn antimicrobial screening; format: cell-based, Staphylococcus aureus; conditions: 5 µL spots at 1000, 500, 250, 125 and 62.5 µg/mL on LB soft agar lawn; overnight, 37 °C
Procedure: The antimicrobial activity screening assay of twelve chemically synthesized peptides was evaluated using a spot-on-the-lawn assay against S. aureus ATCC 25923.
S. aureus ATCC 25923 was grown overnight in LB broth, adjusted to 0.5 McFarland (~1 × 10^8 CFU/mL), and mixed 1:100 into molten soft agar (0.7% agar in LB). Five milliliters of this suspension was overlaid onto LB agar plates and allowed to solidify.
Peptide stock solutions (1 mg/mL) were serially diluted in sterile water, and 5 µL of each dilution was carefully spotted onto the surface of the inoculated agar. The plates were dried under a laminar flow hood for 15–20 min and incubated overnight at 37 °C. Zones were observed, and their size and clarity were compared.

[2] = test system: S. aureus ATCC 25923; format: cell-based, Staphylococcus aureus
[3] = test system: Danio rerio embryos; assay: Zebrafish embryo toxicity (OECD TG 236); format: in vivo; conditions: for LC50 (zebrafish embryos): exposure to 120 hpf, 28 °C, 10 embryos/well, triplicate, LL.2 model, mean ± SD, n = 3
Procedure: Embryos were exposed to six different increasing concentrations of each peptide for 5 consecutive days (120 hfp) and examined for survival and signs of toxicity, following toxicological endpoints (Table S1).
The toxicity of synthetic peptide variants was assessed in vivo using Danio rerio embryos, in accordance with OECD Test Guideline 236 (Fish Embryo Acute Toxicity Test) and the European Directive 2010/63/EU on the protection of animals used for scientific purposes, according to Aleksic et al.. All procedures were conducted at the Institute of Molecular Genetics and Genetic Engineering, University of Belgrade.
Wild-type adult zebrafish were maintained under standard laboratory conditions (28 °C; 14:10 h light–dark cycle). Embryos were obtained via pairwise mating and collected within 1 h post-fertilization (hpf). At 5 hpf, the embryos were randomly distributed into 24-well plates (10 embryos/well, 1 mL embryo medium per well) containing embryo water (0.2 mg/mL Instant Ocean® salts in distilled water). Peptides were tested at five concentrations (e.g., 1.56–25 µg/mL) in triplicate. Peptide solvent was used as a negative control. The plates were incubated at 28 °C without media replacement.
Embryonic development was monitored using an inverted microscope (Zeiss Stemi 508; Carl Zeiss Microscopy GmbH, Jena, Germany). Lethal endpoints and sublethal malformations were scored according to OECD guidelines (Table S1). At 120 hpf, the embryos were anesthetized using 0.1% tricaine, photographed, and euthanized via freezing at −20 °C for 24 h.
LC50 values were estimated using the log–logistic binomial model (LL.2) from the drc package in R.
Dose–response curves and LC50 values were estimated using the log–logistic binomial model (LL.2) from the drc package in R [79] (version 2025.05.0). Mortality data were modeled as proportions of dead individuals relative to total individuals tested, and 95% confidence intervals for LC50 were calculated using the delta method.

[4] = test system: agrA; conditions: half MIC, 16–18 h, 37 °C, normalised to gmk, duplicate
Excerpt: (§1) Six virulence-related genes were selected (agrA, clfA, icaR, lukSPV, spa, and hla) to capture a representative profile of quorum sensing regulation (agrA), adhesion (clfA), biofilm repression (icaR), immune evasion (spa), and cytolytic toxin production (lukSPV and hla), providing an exploratory view of how peptide treatment influences the distinct profile of S. aureus pathogenicity.
(§2) The effect of sub-inhibitory peptide concentrations on S. aureus ATCC 25923 virulence gene expression was evaluated using quantitative real-time PCR (RT-qPCR). […] Untreated bacterial cultures in corresponding media served as controls.
(§3) Total RNA was extracted using the RNeasy Mini Kit (QIAGEN GmbH, Hilden, Germany). Samples were treated with Dnase I (Thermo Fisher Scientific) to remove genomic DNA contamination. RNA concentration and purity were determined using a NanoDrop spectrophotometer (A260/A280 ratio 1.9–2.1).
(§4) Complementary DNA (cDNA) synthesis was performed using […] of total RNA and the RevertAid RT Reverse Transcription Kit (Thermo Fisher Scientific) with random hexamer primers, according to the manufacturer’s instructions. Quantitative PCR was performed using FastGen 2x IC Green qPCR Universal (Nippon Genetics) on a LineGene 9600 Plus Real Time thermocycler (Bioer Technology Co., Ltd., Hangzhou, China). Primer sequences (Table S3) for the virulence-related genes agrA, clfA, hla, icaR, lukS-PV, and spa were used. The housekeeping gene gmk (guanylate kinase) was used for normalization.
(§5) Primer efficiency (90–110%) and specificity were confirmed by melt curve analysis. Relative expression levels were calculated using the ΔΔCt method, as reported by Livak et Schmittgen, comparing treated samples to their corresponding untreated controls in each medium. A log2 fold change ≥1 or ≤−1 was considered biologically significant. All experiments were performed in duplicate.

[5] = test system: clfA; conditions: half MIC, 16–18 h, 37 °C, normalised to gmk, duplicate
Excerpt: as §1, §2, §3, §4, §5

[6] = test system: spa; conditions: half MIC, 16–18 h, 37 °C, normalised to gmk, duplicate
Excerpt: as §1, §2, §3, §4, §5

[7] = test system: icaR; assay: Virulence gene expression, RT-qPCR; format: cell-based, S. aureus ATCC 25923; conditions: half MIC, 16–18 h, 37 °C, normalised to gmk, duplicate
Procedure: (§6) Untreated bacterial cultures in corresponding media served as controls.
(§7) All experiments were performed in duplicate.

[8] = test system: lukSPV; assay: Virulence gene expression, RT-qPCR; format: cell-based, S. aureus ATCC 25923; conditions: half MIC, 16–18 h, 37 °C, normalised to gmk, duplicate
Procedure: as §6, §7

[9] = test system: hla; conditions: half MIC, 16–18 h, 37 °C, normalised to gmk, duplicate

Sequence | zones of inhibition, spot-on-the-lawn assay [1] | MBC [2] [µg/mL] | concentration at which yolk sac retention was observed ([3]; 120 hpf) [ng/mL] | concentration inducing lethal egg coagulation ([3]; 120 hpf) [ng/mL] | agrA expression, log2 fold-change vs untreated control ([4]; FBS) [log2 fold change] | agrA expression, log2 fold-change vs untreated control ([4]; LB medium) [log2 fold change] | clfA expression, log2 fold-change vs untreated control ([5]; FBS) [log2 fold change] | clfA expression, log2 fold-change vs untreated control ([5]; LB medium) [log2 fold change] | spa expression, log2 fold-change vs untreated control ([6]; FBS) [log2 fold change] | spa expression, log2 fold-change vs untreated control ([6]; LB medium) | icaR expression, log2 fold-change vs untreated control ([7]; FBS) [log2 fold change] | icaR expression, log2 fold-change vs untreated control ([7]; LB medium) [log2 fold change] | lukSPV expression, log2 fold-change vs untreated control ([8]; FBS) [log2 fold change] | lukSPV expression, log2 fold-change vs untreated control ([8]; LB medium) [log2 fold change] | hla expression, log2 fold-change vs untreated control ([9]; FBS) [log2 fold change] | hla expression, log2 fold-change vs untreated control ([9]; LB medium) [log2 fold change] | LC50 (zebrafish embryos) [3] [µg/mL] | other results
MWGRILGTVAKYAPKAVSWAWQHKWELINMGDLAFRYIQRIWG [Peptide G13A] | comparable to the wild-type LBU peptide | 12.5 | 1560 | 1560 | 0.82 | -0.40 | 0.64 | -0.19 | 1.69 | -0.32 log2 fold change and −0.33 log2 fold change | 2.66 | 0.36 | 2.49 | -2.28 | 1.04 | -0.11 | – | concentration causing general growth delay ([3]; 120 hpf): 1560 ng/mL; concentration causing hemorrhaging ([3]; 120 hpf): 1560 ng/mL; concentration causing pericardial edema ([3]; 120 hpf): 1560 ng/mL; embryo mortality, in words ([3]; 120 h dose–response): nearly complete mortality at concentrations ≥3.1 µg/mL
MWGRILATVAKYGPKAVSWAWQHKWELINMGDLAFRYIQRIWG [Peptide G7A] | comparable to the wild-type LBU peptide | 25 | 3130 | 6250 | 0.61 | -0.32 | -0.69 | -0.59 | -0.27 | 0.37 log2 fold change | 1.71 | 0.10 | 1.22 | -2.88 | 0.51 | -0.62 | 2.98 | –
MWARILGTVAKYGPKAVSWAWQHKWELINMGDLAFRYIQRIWG [Peptide G3A] | comparable to the wild-type LBU peptide | 25 | 6250 | – | -0.47 | -0.93 | -1.55 | 0.76 | 1.43 | 2.16 log2 fold change | -1.43 | 0.06 | -1.54 | 1.77 | -0.30 | 0.60 | 5.69 | –
